This note sets out measurements from US20230151065A1, “MULTI-DISULFIDE-BOND LONG-CHAIN PEPTIDE WITH NEURO[…], PHARMACEUTICAL COMPOSITION AND APPLICATION” (priority 2018, published 2023).

This experiment concerns primary cultured SD fetal rat cortical neurons after OGD damage. In words: OGD damage of cortical neurons, ROS content (reactive oxygen detection kit). It is filed as cell-based. The note with it: OGD 2 h, 24 h reoxygenation; ABPPk2 8, 40, 200 ng/ml; obvious dose-effect relationship. As for the experimental part:
The suspension was filtered with a 400-mesh screen, centrifuged at 1000 rpm for 5 min, and blown to form the single cell suspension. DMEM high glucose complete medium (containing 10% fetal bovine serum) was inoculated in a culture dish or culture plate pre-coated with polylysine (PLL) to culture in 5% CO2 incubator with saturated humidity at 37° C. After the cells were cultured for 4 h to adhere to the wall, the cells were cultured with neuron culture medium (neurobasal+2% B27) for 3 d to observe the growth of neurons. The culture medium containing cytarabine (the final concentration of cytarabine was 2.5 μg/ml) was substituted with half quantity to culture for 3d to inhibit the growth of glial cells and miscellaneous cells to obtain purely cultured primary cortical nerve cells. The purity of the cortical neurons was identified by immunocytochemical staining as more than 90%. […]
(6) Effect of ABPPk2 on ROS content of cortical neurons after OGD damage: cortical neurons were inoculated in a 6-well plate at 1×10^6 cells/ml; 2 ml of cell suspension was added to each well; and the cortical neurons were cultured to the 7th day. […] The effect of ABPPk2 on the ROS content of the cortical neurons after OGD damage was detected by a reactive oxygen detection kit.

Where no end group is shown, it is not given here.

As to “Cys-Leu-Glu-Ser-Gly-Thr-Ser-Cys-Ile-Pro-Gly-Ala-Gln-His-Asn-Cys-Cys-Ser-Gly-Val-Cys-Val-Pro-Ile-Val-Thr-Ile-Phe-Tyr-Gly-Val-Cys-Tyr (CLESGTSCIPGAQHNCCSGVCVPIVTIFYGVCY; disulfide (positions not given here); not fully specified (bridges); also: three disulfide bonds, pairing not given here) [ABPPk2, 33 amino acid polypeptide isolated from the extract of Achyranthes bidentata Blume, three pairs of disulfide bonds]”, the ROS content result was “can reduce the ROS content”.
